Experimental data from patent US20240374626A1, “METHODS OF ENHANCING MILK PRODUCTION IN LACTATING MAMMALIAN SUBJECTS” (priority 2023, published 2024).

Experiments:
Assay type in all cases: cell-based, mouse
HC11 cells [1] = assay: FACS DNA content analysis of HC11 cells during lactogenic differentiation
Description: (§1) The HC11 cell line was obtained from American Type Culture Collection (ATCC) and routinely checked for mycoplasma (Mycoplasma PCR kit, ABM, G238). Undifferentiated HC11 cells were cultured in growing medium (RPMI-1640; Thermo Fisher Scientific, 72400047), supplemented with 10% FBS, 5 μg/ml insulin (Millipore-Sigma, 16634), 10 ng/ml epidermal growth factor (EGF; Preprotech, AF-100-15) and 1× AntiAnti (Thermo Fisher Scientific, 15240112) at 37° C. with 5% CO2. Cells were grown to confluency and maintained in growing medium for 2 days, until they became competent. Competent HC11 cells were primed for differentiation by culturing them in priming medium [RPMI-1640 supplemented with 5 μg/ml insulin, 1 μM dexamethasone (Millipore-Sigma, D4902-1 G) and 1× Anti-Anti] for 24 h at 37° C. with 5% CO2. To induce differentiation, primed HC11 cells were cultured in DIP Medium [RPMI-1640, supplemented with 10% FBS, 5 μg/ml insulin, 1 μM dexamethasone, 1× anti-anti and 3 μg/ml Prolactin (NHPP, oPRL-21)] at 37° C. with 5% CO2.
(§2) […] Drugs were maintained through the differentiation process and added with every change of media.
For DNA content analysis of the mammary gland CK8^+ epithelial population, mammary gland cells suspension was obtained as described above. Cells were fixed in ice-cold 70% EtOH at a final concentration of 10^6 cells/ml. During fixation, cells were vigorously vortexed for 1 min to avoid the formation of cell aggregates. Cells were washed twice with washing buffer [1×PBS containing 5% FBS and 0.5% tween 20 (Fisher Chemical, BP337500)] and centrifuged at 2,000 rpm for 5 min at 4° C. Cell pellet was incubated for 1 h at room temperature with anti-CK8 (Developmental Studies Hybridoma Lab, TROMA-1), anti-GFP (Thermo Fisher, A01704) or corresponding rat (Thermo-Fisher, 10700) or rabbit (Thermo-Fisher, 10500C) IgG isotype controls. Cells were washed twice and incubated for 1 h at room temperature in darkness with FITC anti-Rat (Thermo Fisher, A24544) or FITC anti-Rabbit (Thermo Fisher, A16030) and APC anti-Rat (Jackson ImmunoResearch, 712-136-153). Cells were washed twice and resuspended in propidium iodide solution [1×PBS containing 25 μg/ml of propidium iodide (Thermo Fisher, P3566) and 100 μg/ml of RNAse (Thermo Fisher, 12091021)]. For DNA content analysis on HC11, cells were washed with 1×DPBS (GIBCO, 14190-250) and harvested using 0.05% Trypsin-EDTA (GIBCO, 25300-062). Cell suspension was washed with 1×DPBS and centrifuged at 1,000 rpm for 5 min at 4° C. Cell pellet was fixed in ice-cold 70% EtOH and then vortexed vigorously to avoid cell aggregates. After fixation, cells were washed with washing buffer [1×PBS (GIBCO, 14190136) supplemented with 5% FBS] and centrifuged at 2,000 rpm for 5 min at 4° C. The pellet was resuspended in propidium iodide solution. Cell suspensions were filtered through a 70 μm cell strainer (Falcon, 08-771-2) and analyzed using a BD LSRII cytometer or a BD FACS Aria II Cell Sorter. Populations were analyzed using FlowJo.

HC11 cells [2] = assay: Milk production markers in differentiated HC11 (milk domes, Csn2 RT-qPCR, CSN2 WB, PLIN2 ICC)
Description: as §1, §2
Whole cell lysates were prepared using 1×NP40 lysis buffer (Thermo Fisher Scientific, FNN0021) supplemented with Pierce Protease and Phosphatase inhibitors (Thermo Fisher Scientific, A32959). Cells were washed with ice-cold PBS (GIBCO, 14190136) and lysed direct in buffer and kept at 4° C. rocking at 70 rpm for 30 min. Lysed cells were collected and centrifuged at 12,000 rpm at 4° C. for 15 min. Protein concentration was quantified using Qubit 4 fluorometer (Thermo Fisher, Q33238). Samples were resolved by SDS page and transferred to polyvinylidene difluoride (PVDF, Millipore-Sigma, IPVH00010) for 60 min at 250 mA. Immunoblots were blocked for 1 h at room temperature using either 5% non-fat milk or 5% BSA TBST. Primary antibodies [anti-GAPDH (SCBT, sc-365062), anti-Actin (SCBT, sc-47778), anti-Cyclin B1 (SCBT, sc-245), anti-Cyclin E1 (Millipore-Sigma, SAB4503516) and anti-CSN2 (ABclonal, A12749)] were incubated overnight at 4° C. in a rocker. HRP-conjugated secondary antibodies ([…]) were used for 1 h at room temperature. Immunoblots were developed using Clarity ECL (Bio-Rad), detected using a Bio-Rad ChemiDoc MP Image, and quantified using ImageJ.
HC11 cells were fixed using ice-cold MeOH for 10 min. After washing with 1×PBS, cells were incubated for 1 h at room temperature with primary antibodies [anti-γH2AX (SCBT, sc-517348), anti-pATR (Genetex, GTX128145), anti-PLIN2 (generously provided by Jim McManaman)] in a humid incubation chamber. After incubation, cells were washed three times using 1×PBS and incubated for 1 h at room temperature in darkness using corresponding Alexa Fluor AffiniPure secondary antibodies (Jackson ImmunoResearch) and Phalloidin-iFluor 488 Reagent (Abcam, ab176753) when indicated. Cells were washed three times using 1×PBS and incubated with Hoechst 33342 (AnaSpec, AS-83218) for 10 min. Cells were mounted using fluoromount-G (Southern Biotech, 0100-01) and visualized using Zeiss Axio Imager Microscope. Integrated density of PLIN2, nuclear γH2AX and nuclear pATR was quantify using ImageJ.
For RNA isolation from FACS purified populations, mammary gland cell suspensions were blocked using Mouse BD Fc Block™ (BD Biosciences) for 10 min. Cells were subsequently resuspended on 1×PBS at a density of 10^7 cells/ml and stained with the following antibodies for 30 min on ice: anti-CD24 PE (Stem Cell Technologies, 60099PE.1), anti-CD29 PE-Cy7 (BioLegend, 102222), anti-CD45-APC (BioLegend,105826), Ter119-APC (BD Biosciences, 561033), CD31-ACP (BD Biosciences, 551262). Propidium iodide at a final concentration of 0.5 μg/ml was used for the discrimination of dead cells. Stromal, basal and luminal mammary populations were sorted using a BD FACS Aria II Cell Sorter. […]

HC11 cells [3] = assay: Visualization of FACS-purified HC11 subpopulations sorted on DNA content (nuclei number); details: sorted on DNA content 4C or >4C
Description: as §2
Mammary gland CK8+ epithelial cells or HC11 were sorted based on DNA content using BD FACS Aria II Cell Sorter. After sorting, cells were stained in suspension using Phalloidin-iFluor 488 Reagent (Abcam, ab176753) for 30 min at room temperature in darkness. Cells were spined down onto microscopy slides (Fisher, 12-550-15) using Cytospin 2 (Shandon, 599X52) at 500 rpm for 3 min. Cells were mounted using fluoromount-G (Southern Biotech, 0100-01) and visualized using Zeiss Axio Imager Microscope.

[4] = Ro-3306 5 μM, differentiated HC11 (DIP3)
[5] = blebbistatin 30 uM, differentiated HC11

| SMILES | endoreplication / polyploidy (FACS DNA content) (HC11 cells [1]; Ro-3306 5 μM, DIP3) | mitotic arrest / accumulation of tetraploid cells (FACS DNA content) (HC11 cells [1]; undifferentiated HC11 at 80% confluence, Ro-3306 5 μM, 6 hours after treatment) | CSN2 expression, RT-qPCR (HC11 cells [2]; [4]) | CSN2 expression, WB (HC11 cells [2]; [4]) | nuclei number of polyploid cells generated (mono-, bi-, multinucleated) (HC11 cells [3]; Ro-3306, differentiated HC11 (DIP3)) | endoreplication / polyploidy (FACS DNA content) (HC11 cells [1]; blebbistatin 30 uM, differentiation day 3 (DIP3)) | mitotic arrest / proportion of tetraploid cells (FACS DNA content) (HC11 cells [1]; undifferentiated HC11 at 80% confluence, blebbistatin 30 uM, 6 hours post-treatment) | expression of Periplin-2 (PLIN2), ICC (HC11 cells [2]; [5]) | expression of β-Casein (Csn2), RT-qPCR (HC11 cells [2]; [5]) | formation of milk-containing domes (HC11 cells [2]; [5]) | nuclei number of cells generated (mono-, bi-, multinucleated) (HC11 cells [3]; blebbistatin, differentiated HC11 (DIP3)) |
| --- | --- | --- | --- | --- | --- | --- | --- | --- | --- | --- | --- |
| O=C1NC(=NCc2cccs2)S/C1=C\c1ccc2ncccc2c1 [Ro-3306] | undergo further endoreplication, becoming polyploid | efficiently induces mitotic arrest, as detected by the accumulation of tetraploid cells | increases | increases | generates mono-, bi- and multinucleated polyploid cells | – | – | – | – | – | – |
| Cc1ccc2c(c1)C(=O)C1(O)CCN(c3ccccc3)C1=N2 (centres unmarked) [blebbistatin] | – | – | – | – | – | undergo further endoreplication, becoming polyploid | efficiently induces mitotic arrest in HC11 cells, increasing the proportion of tetraploid cells | increased expression | increased expression | increase in the formation of milk-containing domes | predominantly generates bi- and multinucleated cells |
